Data published in patent US10975060B2, “High relaxivity gadolinium chelate compounds for use in magnetic resonance imaging” (BAYER PHARMA AKTIENGESELLSCHAFT, priority 2016, dated 2021).

Legend:
Assay type in all cases: physicochemical
[1] = Relaxivity measurements at 1.4 T (MiniSpec mq60, 60 MHz, 37 °C) in water and human plasma; details: 1.41 T, normalized to Gd
Experimental: Relaxivity Measurements at 1.4 T
Relaxivity measurements at 1.41 T were performed using a MiniSpec mq60 spectrometer (Bruker Analytik, Karlsruhe, Germany) operating at a resonance frequency of 60 MHz and a temperature of 37° C. The T1 relaxation times were determined using the standard inversion recovery (IR) method with a fixed relaxation delay of at least 5×T1. The variable inversion time (TI) was calculated automatically by the standard software of the MiniSpec mq60 (8 steps). The T2 measurements were done by using a Carr-Purcell-Meiboom-Gill (CPMG) pulse sequence, applying a relaxation delay of at least 5×T1.
Each relaxivity measurement was performed using three different Gd concentrations (3 concentrations between 0.05 and 2 mM). The T1 and T2 relaxation times of the example compounds 1 to 10 were measured in different media for example in water and human plasma. Human plasma preparation: For each experiment fresh blood was taken from a volunteer using 10 mL citrate-tubes (Sarstedt S-Monovette 02.1067.001, 10 mL, Citrate). The 10 mL citrate-tubes were carefully inverted 10 times to mix blood and anticoagulant and centrifuged for 15 minutes at 1811 g at room temperature (Eppendorf, Centrifuge 5810R).
The relaxivities ri (where i=1, 2) were calculated on the basis of the measured relaxation rates Ri in water and plasma: Ri=Ri(0)+ri[CGd], where Ri(0) represent the relaxation rate of the respective solvent and CGd the concentration of the compound normalized to the Gadolinium. The Gadolinium concentrations of the investigated solutions were verified by Inductively Coupled Plasma Mass Spectrometry (ICP-MS Agilent 7500a, Waldbronn, Germany).

[2] = Relaxivity measurements at 3.0 T (whole body MRI scanner, 37 °C) in water and human plasma; details: normalized to Gd, average ± standard deviation
Experimental: Relaxivity Measurements at 3.0 T
Relaxivity measurements at 3.0 T were performed with a whole body 3.0 T MRI Scanner (Philips Intera, Philips Healthcare, Hamburg, Germany) using a knee-coil (SENSE-Knee-8, Philips Healthcare, Hamburg, Germany). The sample tubes (CryoTubetm Vials, Thermo Scientific 1.8 mL, Roskilde, Denmark) were positioned in 3 rows of 4 and 5 tubes in a plastic holder in a box filled with water. The temperature was adjusted to 37° C. For the MRI sequence the shortest possible echo-time (TE) with 7.46 milliseconds was used. The inversion times were chosen to optimize the sequence to measure T1 values corresponding to the estimated T1 range of all relaxation times of contrast media containing solutions. The following inversion times (TIs) were applied: 50, 100, 150, 200, 300, 500, 700, 1000, 1400, 2100, 3200, and 4500 milliseconds. The sequence was run with a constant relaxation delay of 3.4 seconds after the registration of the last echo (variable TR in the range from 3450 to 7900 milliseconds). For details of the fit procedure, see Rohrer et. al. (Invest. Radiol. 2005; 40, 11: 715-724). The experimental matrix of the phantom measurement was 320×320.
The relaxivities were evaluated using three different concentrations of each compound (3 concentrations between 0.05 and 2 mM).
The T1 relaxation times of Example compounds were measured in water and human plasma. Human plasma preparation: For each experiment fresh blood was taken from a volunteer using 10 mL citrate-tubes (Sarstedt S-Monovette 02.1067.001, 10 mL, Citrate). The 10 mL citrate-tubes were carefully inverted 10 times to mix blood and anticoagulant and centrifuged for 15 minutes at 1811 g at room temperature (Eppendorf, Centrifuge 5810R).
The relaxivities ri (where i=1, 2) were calculated on the basis of the measured relaxation rates Ri in water and plasma: Ri=Ri(0)+ri[CGd], where Ri(0) represent the relaxation rate of the respective solvent and CGd the concentration of the compound normalized to the Gadolinium (Table 2).

[3] = Water solubility (exploratory, 10 mM Tris-HCl, 20 °C); details: water (10 mM Tris-HCl buffer), pH 7.4
Experimental: The exploratory water solubilities of the compounds were determined at room temperature (20° C.) in 0.5 mL buffer solution (10 mM Tris-HCl) in the microcentrifuge tubes (Eppendorf, 2.0 mL safe-lock caps). The solid compounds were added stepwise to the buffer solution. The suspension was mixed using a shaker (Heidolph Reax 2000) and treated 5 min in an ultrasound bath (Bandelin, Sonorex Super RK255H).

[4] = Dynamic CT diffusion phantom study (dialysis cassette in fetal bovine serum); details: dialysis cassette 20,000 MWCO, 20 mmol Gd/L, CT signal over 30 h
Experimental: The described dynamic CT diffusion study compares the ability of Examples 1-10 and Reference compounds 1 and 4 to pass a semipermeable membrane (20 kDa). A 128-row clinical CT device (SOMATOM Definition, 128; Siemens Healthcare, Forchheim, Germany) was used to monitor the diffusion through a semipermeable membrane at 100 kV and 104 mA. Single measurements were performed at 0 min, 1 min, 2 min, 3 min, 5 min, 10 min, 15 min, 20 min, 30 min, 45 min, 60 min, 2 h, 3 h, 5 h, 7 h, 22 h, 24 h, 30 h after placing the dialysis cassette (Slide-A-Lyser, 20,000 MWCO, 0.1-0.5 mL Capacity, Thermo Scientific, Roskilde, Denmark) filled with contrast agent in fetal bovine serum solution (FBS, Sigma, F7524). The images were reconstructed with a slice thickness of 2.4 mm and a B30 convolution kernel. The used concentration in the dialysis cassettes of the investigated Examples 1-10 and Reference compounds 1 and 4 was 20 mmol Gd/L.
The imaging results for all investigated Examples and the Reference compounds 1 and 4 for the time points 0 min and 30 h after placing the cassettes in the FBS solution are depicted in FIG. 1. For image analysis, regions of interest were manually drawn on 1 centrally located slice for each time point (a representative measurement region is indicated in FIG. 1: Image RC1).

Q: Which r1 human plasma [1] does the source give for COCCN(CC(=O)NCC(CNC(=O)CN(CCOC)C(=O)CN1CCN(CC(=O)[O-])CCN(CC(=O)[O-])CCN(CC(=O)[O-])CC1)(CNC(=O)CN(CCOC)C(=O)CN1CCN(CC(=O)[O-])CCN(CC(=O)[O-])CCN(CC(=O)[O-])CC1)CNC(=O)CN(CCOC)C(=O)CN1CCN(CC(=O)[O-])CCN(CC(=O)[O-])CCN(CC(=O)[O-])CC1)C(=O)CN1CCN(CC(=O)[O-])CCN(CC(=O)[O-])CCN(CC(=O)[O-])CC1.[Gd+3].[Gd+3].[Gd+3].[Gd+3] [Example 3, Tetragadolinium {4,10-bis(carboxylatomethyl)-7-[15-(2-methoxyethyl)-10,10-bis[({[(2-methoxyethyl){[4,7,10-tris(carboxylatomethyl)-1,4,7,10-tetraazacyclododecan-1-yl]-acetyl}amino]acetyl}amino)methyl]-7,13,16-trioxo-5-{[4,7,10-tris(carboxylatomethyl)-1,4,7,10-tetraazacyclododecan-1-yl]acetyl}-2-oxa-5,8,12,15-tetraazaheptadecan-17-yl]-1,4,7,10-tetraazacyclododecan-1-yl}acetate] here?
A: 11.7 L/mmol/s

Q: What about the r1 water [1] of the same compound?
A: 10.3 L/mmol/s

Q: What about the r1 human plasma [2] of the same compound?
A: 10.9 ± 0.1 L/mmol/s

Q: And the r1 water [2]?
A: 9.5 ± 0.1 L/mmol/s

Q: What about the Solubility [3] of the same compound?
A: >1000 mg/100 mL

Q: And the “Diffusion half-live (20 kDa)” value [4]?
A: 11.6 h

Q: With CCOCCN(CC(=O)NCC(CNC(=O)CN(CCOCC)C(=O)CN1CCN(CC(=O)[O-])CCN(CC(=O)[O-])CCN(CC(=O)[O-])CC1)(CNC(=O)CN(CCOCC)C(=O)CN1CCN(CC(=O)[O-])CCN(CC(=O)[O-])CCN(CC(=O)[O-])CC1)CNC(=O)CN(CCOCC)C(=O)CN1CCN(CC(=O)[O-])CCN(CC(=O)[O-])CCN(CC(=O)[O-])CC1)C(=O)CN1CCN(CC(=O)[O-])CCN(CC(=O)[O-])CCN(CC(=O)[O-])CC1.[Gd+3].[Gd+3].[Gd+3].[Gd+3] [Example 4, Tetragadolinium {4,10-bis(carboxylatomethyl)-7-[16-(2-ethoxyethyl)-11,11-bis[({[(2-ethoxyethyl){[4,7,10-tris(carboxylatomethyl)-1,4,7,10-tetraazacyclododecan-1-yl]-acetyl}amino]acetyl}amino)methyl]-8,14,17-trioxo-6-{[4,7,10-tris(carboxylatomethyl)-1,4,7,10-tetraazacyclododecan-1-yl]acetyl}-3-oxa-6,9,13,16-tetraazaoctadecan-18-yl]-1,4,7,10-tetraazacyclododecan-1-yl}acetate] as the compound, how does the r1 human plasma [1] read?
A: 12.5 L/mmol/s

Q: What about the r1 water [1] of the same compound?
A: 11.1 L/mmol/s

Q: And the r1 human plasma [2]?
A: 11.3 ± 0.01 L/mmol/s

Q: And the r1 water [2]?
A: 10.1 ± 0.2 L/mmol/s

Q: And the Solubility [3]?
A: >1000 mg/100 mL

Q: And the “Diffusion half-live (20 kDa)” value [4]?
A: 10.1 h

Q: Which r1 human plasma [1] does the source give for CC(C)N(CC(=O)NCC(CNC(=O)CN(C(=O)CN1CCN(CC(=O)[O-])CCN(CC(=O)[O-])CCN(CC(=O)[O-])CC1)C(C)C)(CNC(=O)CN(C(=O)CN1CCN(CC(=O)[O-])CCN(CC(=O)[O-])CCN(CC(=O)[O-])CC1)C(C)C)CNC(=O)CN(C(=O)CN1CCN(CC(=O)[O-])CCN(CC(=O)[O-])CCN(CC(=O)[O-])CC1)C(C)C)C(=O)CN1CCN(CC(=O)[O-])CCN(CC(=O)[O-])CCN(CC(=O)[O-])CC1.[Gd+3].[Gd+3].[Gd+3].[Gd+3] [Example 5, Tetragadolinium [4,10-bis(carboxylatomethyl)-7-{3,13-diisopropyl-8,8-bis({[(isopropyl-{[4,7,10-tris(carboxylatomethyl)-1,4,7,10-tetraazacyclododecan-1-yl]acetyl}amino)-acetyl]amino}methyl)-2,5,11,14-tetraoxo-15-[4,7,10-tris(carboxylatomethyl)-1,4,7,10-tetraazacyclododecan-1-yl]-3,6,10,13-tetraazapentadec-1-yl}-1,4,7,10-tetraazacyclo-dodecan-1-yl]acetate] here?
A: 13.1 L/mmol/s

Q: What about the r1 water [1] of the same compound?
A: 11.1 L/mmol/s

Q: What about the r1 human plasma [2] of the same compound?
A: 11.6 ± 0.4 L/mmol/s

Q: What about the r1 water [2] of the same compound?
A: 10.2 ± 0.1 L/mmol/s

Q: What about the Solubility [3] of the same compound?
A: >1000 mg/100 mL

Q: What about the “Diffusion half-live (20 kDa)” value [4] of the same compound?
A: 10.8 h

Q: For O=C([O-])CN1CCN(CC(=O)[O-])CCN(CC(=O)N(CC(=O)NCC(CNC(=O)CN(C(=O)CN2CCN(CC(=O)[O-])CCN(CC(=O)[O-])CCN(CC(=O)[O-])CC2)C2CC2)(CNC(=O)CN(C(=O)CN2CCN(CC(=O)[O-])CCN(CC(=O)[O-])CCN(CC(=O)[O-])CC2)C2CC2)CNC(=O)CN(C(=O)CN2CCN(CC(=O)[O-])CCN(CC(=O)[O-])CCN(CC(=O)[O-])CC2)C2CC2)C2CC2)CCN(CC(=O)[O-])CC1.[Gd+3].[Gd+3].[Gd+3].[Gd+3] [Example 7, Tetragadolinium [4,10-bis(carboxylatomethyl)-7-{3,13-dicyclopropyl-8,8-bis({[(cyclopropyl{[4,7,10-tris(carboxylatomethyl)-1,4,7,10-tetraazacyclododecan-1-yl]acetyl}-amino)acetyl]amino}methyl)-2,5,11,14-tetraoxo-15-[4,7,10-tris(carboxylatomethyl)-1,4,7,10-tetraazacyclododecan-1-yl]-3,6,10,13-tetraazapentadec-1-yl}-1,4,7,10-tetra-azacyclododecan-1-yl]acetate], which r1 human plasma [1] is on record?
A: 12.1 L/mmol/s

Q: What about the r1 water [1] of the same compound?
A: 10.6 L/mmol/s

Q: What about the r1 human plasma [2] of the same compound?
A: 11.1 ± 0.1 L/mmol/s

Q: And the r1 water [2]?
A: 9.7 ± 0.1 L/mmol/s

Q: What about the Solubility [3] of the same compound?
A: >1000 mg/100 mL

Q: What about the “Diffusion half-live (20 kDa)” value [4] of the same compound?
A: 14.0 h
